One data set has as its system Bacillus anthracis. Type of data set: cell-based.
In a further data set the target is CYP2D6 (Homo sapiens (Human), UniProt P10635). The data set is described as follows: in vitro. The following applies: liver microsomes, pH 7.4. In general terms: Microsomes from liver hold many membrane-bound enzymes, among them those of drug oxidation.
For data set [1], the system named is Streptococcus pneumoniae ATCC 6301 (UNT012-2). Kind of data set: Immunocompetent mouse pneumonia model. Type of data set: in vivo. The procedure:
The compound of Formula (II) was then evaluated against Streptococcus pneumoniae in an immunocompetent mouse pneumonia model to determine the compound's potential to treat acute respiratory infections. Briefly, CD-1 mice were infected intranasally with Streptococcus pneumoniae ATCC 6301 (UNT012-2) (1.5×10^6 CFU/mouse). The compound was delivered intravenously at 24 and 36 hours post-infection, and at doses ranging from 0.5 to 10 mg/kg/dose. At 48 hours post infection, treated mice were euthanized, lungs aseptically removed and processed for CFU titers

Broadly, the MIC is the smallest concentration in the dilution series that meets the test's criterion for growth inhibition. As a reminder, the inhibition is the change of the read-out against control, counted positive when it falls. Lower therefore signals a weak effect.

≈ marks a conversion by molar mass, not a printed value. Read-outs that look alike come from different tables or passages of the source.

Sequence of CYP2D6 (P10635 whole entry, looked up): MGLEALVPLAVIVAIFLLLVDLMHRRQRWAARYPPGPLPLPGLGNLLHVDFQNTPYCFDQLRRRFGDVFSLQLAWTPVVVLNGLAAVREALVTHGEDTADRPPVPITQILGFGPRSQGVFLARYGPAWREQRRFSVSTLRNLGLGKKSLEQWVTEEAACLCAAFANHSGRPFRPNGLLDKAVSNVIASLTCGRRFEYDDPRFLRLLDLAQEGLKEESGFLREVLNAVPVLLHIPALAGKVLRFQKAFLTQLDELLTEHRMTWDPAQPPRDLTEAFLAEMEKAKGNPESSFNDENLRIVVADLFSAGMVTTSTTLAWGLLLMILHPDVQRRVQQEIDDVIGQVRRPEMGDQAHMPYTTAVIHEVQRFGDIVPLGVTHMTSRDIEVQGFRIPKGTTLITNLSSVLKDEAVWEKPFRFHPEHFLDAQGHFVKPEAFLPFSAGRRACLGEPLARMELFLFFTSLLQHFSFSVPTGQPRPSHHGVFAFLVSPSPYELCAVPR

`C[C@H]1c2cccc(O)c2C(=O)C2=C(O)[C@]3(O)C(=O)C(C(N)=O)=C(O)[C@@H](N(C)C)[C@@H]3[C@@H](O)[C@@H]21` [Doxycycline]: the minimal inhibitory concentration (MIC) with Bacillus anthracis (B. anthracis NR-36) was 0.06 µg/mL (≈ 0.135 µM); with Bacillus anthracis (B. anthracis NR-38) it was 0.125 µg/mL (≈ 0.281 µM); against Bacillus anthracis (B. anthracis NR-41), 0.06 µg/mL (≈ 0.135 µM); with Bacillus anthracis (B. anthracis NR-46), 0.125 µg/mL (≈ 0.281 µM); with Bacillus anthracis (B. anthracis NR-411), 0.125 µg/mL (≈ 0.281 µM); against Bacillus anthracis (B. anthracis NR-412) it was 0.03 µg/mL (≈ 0.0675 µM). Moreover, the MIC in the data set with Bacillus anthracis (B. anthracis NR-413) stood at 0.06 µg/mL (≈ 0.135 µM); in the data set on Bacillus anthracis (B. anthracis NR-414), 0.125 µg/mL (≈ 0.281 µM); in the data set with Bacillus anthracis (B. anthracis NR-415) it was 0.06 µg/mL (≈ 0.135 µM); in the data set with Bacillus anthracis (B. anthracis NR-3838) it was 0.06 µg/mL (≈ 0.135 µM).
In the case of `C=C[C@H]1C[N@@]2CC[C@H]1C[C@@H]2[C@@H](O)c1ccnc2ccc(OC)cc12` [Quinidine], at CYP2D6, the inhibition at 10 min, 0.1 µM came out at 60.6% and the inhibition at 10 min, 1 µM turned out to be 91.7%.
As for `CC1(C)S[C@@H]2[C@H](NC(=O)[C@H](N)c3ccc(O)cc3)C(=O)N2[C@H]1C(=O)O` [Amoxicillin], in data set [1] (10 mg/kg/dose), the “Log10 change from 24 hrs” value is −3.98 Log10 and the “Log10 change from 48 hrs” value is −5.83 Log10. Further, the “Mean Log10 CFU” value in data set [1] (10 mg/kg/dose IV at 24 and 36 hours post-infection, lungs at 48 hours) turned out to be 2.78 Log10 CFU.

For the origin of these results see patent US9402878B2, “Depsipeptide and uses thereof” (priority 2012, dated 2016).
